In the supplement of paper PMC11061612:

Columns and labels:
[1] = test system: 639-V (Bladder Carcinoma); assay: Bliss excess, mean over the matrix (fraction); higher = more synergy
How it was run: (§1)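 Cell lines in DMEM/F12 or RPMI with 10% FBS were plated in 1536-well plates, held 24 hours at 37°C, 5% CO2, then given two-drug dose matrices for 72 hours (DMSO typically 0.2%). Viability was read by CellTiter-Glo 2.0 luminescence and scaled as inhibition from 0 (vehicle wells) to 1 (blank wells). Combination Emax is the second-highest inhibition in the matrix; Bliss excess is observed combination effect minus expected EA + EB − EA·EB, EA and EB being single-agent effects.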

[2] = test system: 8305C (Thyroid Gland Carcinoma); assay: as above
How it was run: as §1

[3] = test system: CAL-51 (Breast Carcinoma); assay: as above
How it was run: as §1

[4] = test system: CAPAN-1 (Pancreatic Carcinoma); assay: as above
How it was run: as §1

[5] = test system: CTB-1 (B-Cell Non-Hodgkin's Lymphoma); assay: as above
How it was run: as §1

[6] = test system: HCC-15 (Squamous Cell Lung Carcinoma); assay: as above
How it was run: as §1

HMV-II (Melanoma) [7] = assay: as above
How it was run: as §1

[8] = test system: Hs-633T (Other Solid Carcinomas); assay: as above
How it was run: as §1

[9] = test system: LB771-HNC (Head and Neck Carcinoma); assay: as above
How it was run: as §1

[10] = test system: OC-314 (Ovarian Carcinoma); assay: as above
How it was run: as §1

[11] = test system: RKO (Colorectal Carcinoma); assay: as above
How it was run: as §1

[12] = test system: RPMI-6666 (Non-Cancerous); assay: as above
How it was run: as §1

[13] = test system: RT-112 (Bladder Carcinoma); assay: as above
How it was run: as §1

SH-4 (Melanoma) = assay: as above
How it was run: as §1

[14] = test system: SU-DHL-6 (B-Cell Non-Hodgkin's Lymphoma); assay: as above
How it was run: as §1

[15] = test system: UMC-11 (Other Solid Carcinomas); assay: as above
How it was run: as §1

[16] = test system: EN (Endometrial Carcinoma); assay: combination Emax (second highest fraction inhibited in the dose matrix, 72 h); higher = more inhibition; extreme values may be limits of the assay
How it was run: as §1

HMV-II (Melanoma) [17] = assay: as above
How it was run: as §1

[18] = test system: LB771-HNC (Head and Neck Carcinoma); assay: as above
How it was run: as §1

NCI-H28 (Mesothelioma) = assay: as above
How it was run: as §1
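Throughout, for Bliss excess, mean over the matrix: after 72 h of two-drug dosing.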

Compound | Bliss excess [1] | Bliss excess [2] | Bliss excess [3] | Bliss excess [4] | Bliss excess [5] | Bliss excess [6] | Bliss excess (HMV-II (Melanoma) [7]) | Bliss excess [8] | Bliss excess [9] | Bliss excess [10] | Bliss excess [11] | Bliss excess [12] | Bliss excess [13] | Bliss excess (SH-4 (Melanoma)) | Bliss excess [14] | Bliss excess [15] | combination Emax [16] | combination Emax (HMV-II (Melanoma) [17]) | combination Emax [18] | combination Emax (NCI-H28 (Mesothelioma))
CC1(C)CCC(CN2CCN(c3ccc(C(=O)NS(=O)(=O)c4ccc(NCC5CCOCC5)c([N+](=O)[O-])c4)c(Oc4cnc5[nH]ccc5c4)c3)CC2)=C(c2ccc(Cl)cc2)C1 [Venetoclax] + C1CN(CCC1(C(=O)N[C@@H](CCO)C2=CC=C(C=C2)Cl)N)C3=NC=NC4=C3C=CN4 [Capivasertib] (first compound max 1 µM, 7x7, partner max 3 µM) | -0.108 | 0.0038 | -0.0879 | -0.0473 | -0.045 | -0.0286 | -0.0444 | -0.0185 | -0.008 | -0.0017 | -0.0173 | 0.0217 | -0.0313 | -0.0592 | 0.0537 | -0.038 | 0.554 | 0.236 | 0.248 | 0.216
Cc1c2c(nn1C)CSCc1cc(n(C)n1)CSc1cc(c3ccccc3c1)OCCCc1c(C(=O)O)n(C)c3c-2c(Cl)ccc13 [AZD5991] + CC1(C)CCC(CN2CCN(c3ccc(C(=O)NS(=O)(=O)c4ccc(NCC5CCOCC5)c([N+](=O)[O-])c4)c(Oc4cnc5[nH]ccc5c4)c3)CC2)=C(c2ccc(Cl)cc2)C1 [Venetoclax] (first compound max 1 µM, 7x7, partner max 1 µM) | 0.0009 | -0.0189 | 0.0481 | -0.0459 | -0.0491 | -0.0271 | -0.0257 | -0.016 | 0.0035 | -0.0045 | 0.0107 | 0.233 | 0.057 | 0.0457 | 0.0744 | 0.0749 | 0.608 | 0.151 | 0.587 | 0.185
COc1cccc(OCCCN)c1-c1cc(Nc2cnc(C#N)cn2)n[nH]1 [Prexasertib] + C=CCn1c(=O)c2cnc(Nc3ccc(N4CCN(C)CC4)cc3)nc2n1-c1cccc(C(C)(C)O)n1 [AZD1775] (first compound max 1 µM, partner max 1 µM) | 0.178 | 0.0491 | 0.101 | -0.0069 | 0.0374 | 0.0293 | 0.0779 | 0.0796 | 0.0424 | 0.0884 | 0.0521 | 0.0119 | 0.119 | 0.0591 | 0.25 | 0.0712 | 0.859 | 0.708 | 0.622 | 0.659
CN(CCO)CC[C@H](CSc1ccccc1)Nc1ccc(S(=O)(=O)NC(=O)c2ccc(N3CCC([C@@H](O)c4ccccc4-c4ccc(Cl)cc4)CC3)cc2)cc1S(=O)(=O)C(F)(F)F [AZD4320] + C[C@@H]1COCCN1C2=NC(=NC(=C2)C3(CC3)[S@](=N)(=O)C)C4=C5C=CNC5=NC=C4 [AZD6738] (first compound max 1 µM, 7x7, partner max 10 µM) | -0.0022 | -0.004 | -0.0316 | 0.0034 | -0.0791 | -0.0124 | -0.0476 | -0.0092 | 0.0047 | -0.0066 | -0.0309 | -0.0271 | 0.0135 | -0.0411 | -0.0311 | -0.028 | 0.69 | 0.331 | 0.6 | 0.668
CN(CCO)CC[C@H](CSc1ccccc1)Nc1ccc(S(=O)(=O)NC(=O)c2ccc(N3CCC([C@@H](O)c4ccccc4-c4ccc(Cl)cc4)CC3)cc2)cc1S(=O)(=O)C(F)(F)F [AZD4320] + Cn1cnc2c(F)c(Nc3ccc(Br)cc3Cl)c(C(=O)NOCCO)cc21 [Selumetinib] (first compound max 1 µM, 7x7, partner max 3 µM) | 0.22 | 0.097 | 0.0502 | 0.0665 | -0.0849 | 0.0827 | 0.0015 | -0.0329 | 0.0178 | 0.0048 | 0.0229 | -0.0047 | 0.113 | 0.107 | -0.0145 | -0.0068 | 0.29 | 0.826 | 0.255 | 0.313
CCN(CCO)CCCOc1ccc2c(Nc3cc(CC(=O)Nc4cccc(F)c4)[nH]n3)ncnc2c1 [AZD2811] + C=CCn1c(=O)c2cnc(Nc3ccc(N4CCN(C)CC4)cc3)nc2n1-c1cccc(C(C)(C)O)n1 [AZD1775] (first compound max 1 µM, partner max 1 µM) | 0.0509 | -0.0355 | 0.0511 | -0.0733 | 0.0011 | -0.0049 | -0.0339 | -0.008 | -0.0295 | 0.0976 | -0.0625 | -0.0271 | 0.0233 | -0.0484 | 0.0537 | 0.0014 | 0.558 | 0.473 | 0.359 | 0.278
Cc1c2c(nn1C)CSCc1cc(n(C)n1)CSc1cc(c3ccccc3c1)OCCCc1c(C(=O)O)n(C)c3c-2c(Cl)ccc13 [AZD5991] + C[C@@H](Nc1cc(F)cc(F)c1)c1cc(C(=O)N(C)C)cc2c(=O)cc(N3CCOCC3)oc12 [AZD8186] (first compound max 1 µM, 7x7, partner max 3 µM) | 0.0519 | -0.0844 | 0.0173 | -0.0595 | -0.0135 | -0.0047 | -0.0401 | 0.0127 | -0.0206 | -0.0029 | -0.0116 | -0.0005 | 0.0316 | 0.0203 | -0.002 | -0.039 | 0.558 | 0.192 | 0.486 | 0.298
COc1cc2c(cc1OCCCCCOc1cc3c(cc1OC)C(=O)N1C=C(C)C[C@H]1C=N3)N=C[C@@H]1CC(C)=CN1C2=O [SG3199] + O=C(c1cc(Cc2n[nH]c(=O)c3ccccc23)ccc1F)N1CCN(C(=O)C2CC2)CC1 [Olaparib] (first compound max 0.001 µM, 7x7, partner max 10 µM) | -0.0289 | -0.0854 | -0.0299 | -0.0802 | -0.043 | -0.0166 | -0.0524 | -0.0312 | 0.0002 | -0.036 | -0.0131 | 0.0028 | -0.0227 | -0.027 | 0.0075 | 0.0084 | 0.148 | 0.118 | 0.181 | 0.0051
CN(CCO)CC[C@H](CSc1ccccc1)Nc1ccc(S(=O)(=O)NC(=O)c2ccc(N3CCC([C@@H](O)c4ccccc4-c4ccc(Cl)cc4)CC3)cc2)cc1S(=O)(=O)C(F)(F)F [AZD4320] + CN(C)CCCOc1ccc(-c2ccc3ncc4c(c3c2)n(C2CCOCC2)c(=O)n4C)cn1 [AZD0156] (first compound max 1 µM, 7x7, partner max 1 µM) | -0.0209 | -0.0489 | -0.034 | -0.0654 | -0.0376 | -0.0137 | -0.0267 | -0.014 | -0.0454 | -0.0231 | -0.0253 | -0.0597 | -0.0274 | -0.0238 | – | -0.0015 | 0.218 | 0.157 | 0.0751 | 0.163
Cc1c2c(nn1C)CSCc1cc(n(C)n1)CSc1cc(c3ccccc3c1)OCCCc1c(C(=O)O)n(C)c3c-2c(Cl)ccc13 [AZD5991] + CCN(CCO)CCCOc1ccc2c(Nc3cc(CC(=O)Nc4cccc(F)c4)[nH]n3)ncnc2c1 [AZD2811] (first compound max 1 µM, 7x7, partner max 1 µM) | 0.0649 | -0.0204 | 0.112 | -0.0303 | -0.0167 | -0.0144 | – | -0.0106 | 0.0432 | 0.0457 | 0.0201 | – | 0.125 | 0.0439 | 0.0379 | -0.0037 | 0.866 | 0.4 | 0.591 | 0.342
Cc1c2c(nn1C)CSCc1cc(n(C)n1)CSc1cc(c3ccccc3c1)OCCCc1c(C(=O)O)n(C)c3c-2c(Cl)ccc13 [AZD5991] + C1CN(CCC1(C(=O)N[C@@H](CCO)C2=CC=C(C=C2)Cl)N)C3=NC=NC4=C3C=CN4 [Capivasertib] (first compound max 1 µM, 7x7, partner max 3 µM) | -0.0036 | 0.0008 | 0.0392 | -0.0318 | -0.0048 | 0.0441 | -0.0307 | 0.0123 | 0.0612 | 0.0362 | 0.0296 | 0.0216 | 0.0563 | -0.0029 | -0.0035 | 0.0253 | 0.848 | 0.198 | 0.587 | –
CCc1c2c(nc3ccc(O)cc13)-c1cc3c(c(=O)n1C2)COC(=O)[C@]3(O)CC [SN-38] + O=C(c1cc(Cc2n[nH]c(=O)c3ccccc23)ccc1F)N1CCN(C(=O)C2CC2)CC1 [Olaparib] (first compound max 0.3 µM, 7x7, partner max 10 µM) | 0.0917 | 0.04 | 0.119 | 0.0168 | 0.0546 | – | 0.0175 | 0.17 | -0.0181 | 0.117 | 0.0223 | 0.0394 | 0.116 | 0.0956 | 0.0391 | 0.035 | 0.18 | 0.641 | 0.0947 | 0.429
NC1(C(=O)N[C@@H](CCO)c2ccc(Cl)cc2)CCN(c2ncnc3[nH]ccc23)CC1 [Capivasertib] + Cn1cnc2c(F)c(Nc3ccc(Br)cc3Cl)c(C(=O)NOCCO)cc21 [Selumetinib] (first compound max 10 µM, 7x7, partner max 10 µM) | -0.0183 | -0.0212 | 0.0176 | -0.0081 | – | 0.0366 | -0.005 | 0.0259 | -0.0595 | 0.0668 | 0.0463 | 0.0604 | 0.01 | -0.0106 | 0.0255 | 0.0032 | 0.646 | 0.838 | 0.51 | 0.404
CS(=O)(=O)CCNCc1ccc(-c2ccc3ncnc(Nc4ccc(OCc5cccc(F)c5)c(Cl)c4)c3c2)o1 [Lapatinib] + C[C@@H](Oc1cc(-c2cnn(C3CCNCC3)c2)cnc1N)c1c(Cl)ccc(F)c1Cl [Crizotinib] (first compound max 10 µM, 7x7, partner max 10 µM) | -0.0596 | -0.169 | -0.0029 | -0.0937 | – | -0.0179 | -0.11 | -0.0338 | -0.0398 | -0.0479 | -0.0977 | -0.0624 | 0.0155 | -0.0365 | -0.0299 | -0.0964 | 0.559 | 0.912 | 0.854 | 0.622
